Reference: patent US6989385B2, “Pyrazole compounds useful as protein kinase inhibitors” (Vertex Pharmaceuticals Incorporated, priority 2000, dated 2006)

Target: T1, Aurora-2 (Homo sapiens, UniProt O14965)
T1 sequence (O14965 1-403): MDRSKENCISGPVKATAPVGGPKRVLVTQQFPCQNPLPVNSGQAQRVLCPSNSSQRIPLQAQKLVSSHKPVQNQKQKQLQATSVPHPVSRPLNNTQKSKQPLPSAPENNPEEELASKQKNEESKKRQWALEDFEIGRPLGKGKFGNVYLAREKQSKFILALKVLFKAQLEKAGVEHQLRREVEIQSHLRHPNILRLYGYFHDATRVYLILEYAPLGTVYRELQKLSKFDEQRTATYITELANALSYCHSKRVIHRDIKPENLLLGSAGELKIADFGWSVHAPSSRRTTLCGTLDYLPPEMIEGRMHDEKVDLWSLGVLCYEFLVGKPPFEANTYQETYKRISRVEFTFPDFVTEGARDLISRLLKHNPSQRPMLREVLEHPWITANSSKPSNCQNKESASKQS
Assay: Ki determination for the inhibition of Aurora-2 (coupled enzyme assay)
Assay type: biochemical
Conditions: 70 nM Aurora-2, 30° C.
Method: To an assay stock buffer solution containing 0.1 M HEPES 7.5, 10 mM MgCl2, 1 mM DTT, 25 mM NaCl, 2.5 mM phosphoenolpyruvate, […], 30 mg/ml pyruvate kinase, 10 mg/ml lactate dehydrogenase, 40 mM ATP, and 800 μM peptide (LRRASLG, American Peptide, Sunnyvale, Calif.) was added a DMSO solution of a compound of the present invention to a final concentration of 30 μM. The resulting mixture was incubated at 30° C. for 10 min. The reaction was initiated by the addition of 10 μL of Aurora-2 stock solution to give a final concentration of 70 nM in the assay. […] The Ki values were determined from the rate data as a function of inhibitor concentration.

Cc1cc(Nc2cc(C)[nH]n2)nc(C(C)(C)c2ccccc2)n1 [IIId-20]
Ki: 100 to 1000 nM
